{"source": "patent US10086090B2", "about": "“Indocyanine compound, synthesis method and purification method thereof, diagnostic composition using the indocyanine compound, and device for measuring biokinetics and device for visualizing circulation using the diagnostic composition” (NATIONAL UNIVERSITY CORPORATION MIE UNIVERSITY, priority 2010, dated 2018)", "key": {"[1]": {"test": "Fluorescence in aqueous solution", "type": "physicochemical", "conditions": "0.1 μM aqueous solution, 25° C., 720 nm excitation; relative to ICG 0.13 in DMSO", "description": "The fluorescence of ICG and the cyclodextrin-bonded indocyanine compounds of the present invention (the chemical formulae 16, 20, 21, and 23 to 25) in an aqueous solution was studied. A 0.1 μM aqueous solution including ICG or each of the cyclodextrin-bonded indocyanine compounds of the present invention (the chemical formulae 16, 20, 21, and 23 to 25) was put in a 1 cm square quartz cell at 25° C., which was excited with 720 nm excitation light (bandpass: 10 nm), and a fluorescence spectrum (bandpass: 10 nm) was measured. A fluorescence efficiency was calculated based on a fluorescence efficiency of ICG, 0.13 (in DMSO, at 25° C.). […] The fluorescence quantum efficiencies thereof were respectively 2.6-fold and 2-fold of that of ICG."}, "[2]": {"conditions": "in DMSO, at 25° C.; cited from earlier work"}, "[3]": {"conditions": "cited from earlier work"}, "[4]": {"test": "Observation at blood vessel level (cremaster skin flap)", "type": "in vivo", "conditions": "rat, exposed blood vessel", "description": "ICG or TK1 was administered in a state in which a blood vessel of a rat was directly exposed and observed by methods disclosed in Non Patent Documents 7 and 8 (FIG. 15), and a state of a cremaster skin flap after the exposure is shown in FIG. 16. ICG or TK1 was administered in the state in which the blood vessel was exposed, and the observation was performed. As a result, it was observed that ICG was unevenly distributed in the blood vessel, compared to TK1. […] In order to more precisely study it, photomicrographs of the blood vessel after the administration are shown in FIG. 17 (ICG) and FIG. 18 (TK1)."}, "[5]": {"test": "Molecule association in aqueous solution (optical absorption spectrum)", "type": "physicochemical", "conditions": "0.01 mM to 0.1 mM aqueous solutions, 25° C., absorption 600 nm to 1000 nm", "description": "The molecule association of ICG and the cyclodextrin-bonded indocyanine compounds of the present invention (the chemical formulae 16, 20, 21, and 23 to 25) in an aqueous solution was studied. Each of 0.01 mM, 0.025 mM, 0.05 mM, and 0.1 mM aqueous solutions including ICG or the cyclodextrin-bonded indocyanine compound of the present invention (each chemical formula 16, 20, 21, and 23 to 25) was prepared, it was put in a quartz cell having a length of an optical path of 1 mm, and an optical absorption spectrum at 600 nm to 1000 nm was measured at 25° C."}, "[6]": {"test": "Solubility tests in water or physiological saline", "type": "physicochemical", "conditions": "powder", "description": "Solubility tests of ICG and the cyclodextrin-bonded indocyanine compounds of the present invention (the chemical formulae 16, 20, 21, and 23 to 25) in water or physiological saline were performed."}, "[7]": {"test": "Ischemia model of lower limbs (ligation of right femoral artery)", "type": "in vivo", "conditions": "rat", "text": "As apparent from the image view 12, the state in which the fluorescence was emitted in accordance with the blood flow was clear in the dorsal region of foot."}, "[8]": {"test": "Luminance of dorsalis pedis in λ-carrageenin edema rats (acute inflammation experiment)", "type": "in vivo, rat", "description": "Rats (male, Wister rat) which were 10-week old and about 350 g were selected as a test animal (n=4). The rat was generally anesthetized with isoflurane, and 0.1 mL of 0.5% […] was injected to a left posterior footpad using a 26 G needle, thus resulting quick generation of edema on the foot. After 15 minutes, a volume of the left foot of the rat was measured using a rat footpad volume-measuring device (MK-101 CMP PLETHYSMOMETER manufactured by Muromachi Kikai Co., Ltd.).\nAfter that, the isoflurane was off and the emergence of the rat was confirmed. After Von Frey test was performed, the rat was generally anesthetized with isoflurane again. […]\nA moiety (ROI) to be measured by the PDE camera was set at a central part of the dorsalis pedis and light was turned off. […] After that, luminance was measured for one minute at 5 minute-intervals and the measurement was continued until 120 minutes from the infusion. […]\nAfter 7 days, a Von Frey test was performed and then the rat was quickly generally anesthetized with isoflurane, and the volume of the left foot of the rat was measured by using the rat footpad volume-measuring device. […] After that, luminance was measured for one minute at 5 minute-intervals and the measurement was continued until 120 minutes from the infusion. […]"}, "[9]": {"test": "Observation of distribution in rat body (caudate vein administration, PDE camera)", "type": "in vivo", "description": "Left is a monochrome image through visible light, and right is a fluorescence image.\nAfter Wistar male rat (9-week old, a body weight of 350 g) was ether-anesthetized, 0.1 mL of Nembutal was intraperitoneally administered using a 26 G needle to perform the anesthesia. A base of the rat's tail was wrapped tightly with a rubber band to prevent the flow of blood, and the caudate vein was secured with a 24 G Therflow needle and a peripheral line were secured by inserting a three-way stopcock and an extension tube. The rat was fixed on a flat stand in a supine position (FIG. 8). A PDE camera unit manufactured by Hamamatsu Photonics K.K. was set at exactly 16 cm from the body of the rat. When the whole body was extensively photographed, the distance was 20 cm. The observation range was an about range shown by black dots in FIG. 8. After that, ICG, TK1 or TK2 was administered in a concentration of 1 mM from the peripheral line secured. The administration amount was 0.1 mL. After 20 minutes from the administration, the fluorescence state of the abdominal cavity which was opened is shown in FIG. 9, and the fluorescence state (images at the maximum luminance) of the dorsal region of foot was shown in FIG. 12.\nIn addition, a time reaching the maximum fluorescence intensity value (Imax), Imax value and a time at which the value reached a half of the Imax value (t1/2) are shown in Table 1."}, "[10]": {"test": "Fluorescence in blood (surface fluorescence spectrum)", "conditions": "100 μM in blood (human), 25° C., 760 nm excitation", "description": "The fluorescence of ICG and the cyclodextrin-bonded indocyanine compounds of the present invention (the chemical formulae 16, 20, 21, and 23 to 25) in blood was studied. ICG and the cyclodextrin-bonded indocyanine compounds of the present invention (the chemical formulae 16, 20, 21, and 23 to 25) were respectively dissolved in blood (human) in a concentration of 100 μM. The resulting blood was put in a triangular quartz cell at 25° C., which was excited with 760 nm excitation light (bandpass: 10 nm), and a surface fluorescence spectrum (bandpass: 10 nm) was measured. […] The cyclodextrin-bonded indocyanine compounds of the present invention, in particular, the compounds represented by the chemical formula 16 and the chemical formula 20 had respectively fluorescence intensities of 270 (arbitrary unit) and 190 (arbitrary unit), which were 4.7-fold and 3.3-fold of that of ICG. It could be considered that this is caused because the emission of light from the cyclodextrin-bonded indocyanine compound of the present invention was not hindered in the living body."}, "[11]": {"conditions": "rat dorsal region of foot, 1 mM 0.1 mL caudate vein"}}, "data": [{"compound": "CC1(C)C(/C=C/C=C/C=C/C=C2\\N(CCCCS(=O)(=O)O)c3ccc4ccccc4c3C2(C)C)=[N+](CCCCS(=O)(=O)[O-])c2ccc3ccccc3c21", "note": "[ICG, indocyanine green]", "values": [{"measurement": "fluorescence quantum efficiency", "setting": "[1]", "result": 0.021}, {"measurement": "fluorescence efficiency (reference value)", "setting": "[2]", "result": 0.13}, {"measurement": "organ of accumulation (as already known)", "setting": "[3]", "result": "highly accumulated in liver"}, {"measurement": "transfer from the blood vessel into the interstitial tissue fluid", "setting": "[4]", "result": "hardly transferred from the blood vessel into the interstitial tissue fluid"}, {"measurement": "molecule association called H-aggregation", "setting": "[5]", "result": "occurred"}, {"measurement": "dissolving in water or physiological saline (need for vibration-stirring)", "setting": "[6]", "result": "About one minute violent vibration-stirring was necessary"}, {"measurement": "fluorescence in the ischemia area", "setting": "[7]", "result": "the fluorescence was not observed in the ischemia area"}, {"measurement": "time for luminance in ROI to decrease to the base line", "setting": "[8]; rat dorsalis pedis, 0.1 mL caudate vein", "result": "about 10 minutes"}, {"measurement": "luminance change of dorsalis pedis, λ-carrageenin group versus control", "setting": "[8]; rat, dye infused after λ-carrageenin injection, interstitial tissue phase", "result": "the difference in the luminance was not observed"}, {"measurement": "organ of main accumulation", "setting": "[9]; Wistar rat, 1 mM 0.1 mL caudate vein, 20 minutes after administration, abdominal cavity opened", "result": "mainly accumulated in the liver"}, {"measurement": "half-life", "setting": "[9]; male, Wistar, intravenous, 0.1 mL of 1 mM solution, rat dorsal region of foot, 1 mM 0.1 mL caudate vein, read-out: t1/2 (time at which the value reached a half of the Imax value)", "result": 2.3, "unit": "min"}, {"measurement": "time after administration until fluorescence intensity was reduced to about initial value", "setting": "[9]; rat dorsal region of foot", "result": "less than 10 minutes"}, {"measurement": "Imax* (maximum fluorescence intensity value)", "setting": "[9]; [11]", "result": 124}, {"measurement": "Time for Imax (time reaching the maximum fluorescence intensity value)", "setting": "[9]; [11]", "result": 0.5, "unit": "min"}, {"measurement": "fluorescence intensity at the maximum fluorescence wavelength", "setting": "[10]", "result": 58, "unit": "arbitrary unit"}]}]}
